Our source for the IC50 values is patent US20230151034A1 (COCRYSTAL PHARMA, INC., priority 2020, published 2023).

In one assay the target is SARS2 protease (Severe acute respiratory syndrome coronavirus 2, UniProt P0DTD1). Kind of assay: SARS-CoV-2 protease inhibition assay (SARS2 FRET protease assay). In kind it is biochemical. Particulars: Table E; SARS-CoV-2 protease inhibition; read-out: IC50. As for the experimental part: (§1) Viral protease assays: The antiviral activities of inhibitors were determined by FRET (Fluorescence Resonance Energy Transfer) assay. Purified viral protease was incubated with the protease substrate peptide (Edans-DFHLQ/GP-Dabcyl) and inhibitor, and IC50 values were subsequently determined by the fluorescence signals.
The SARS2 FRET protease assay was performed in 20 mM HEPES-Na pH 7, 120 mM NaCl, 0.4 mM EDTA, 0.01% Triton, 5% glycerol, and 4 mM DTT. A self-quenching peptide substrate 5-FAM-TSA VLQ SGF RKK (5TAMRA)-NH2 was custom synthesized by Anaspec. Compounds were diluted in 3-fold serial dilutions to final concentrations of 20 μM to 1.0 nM. SARS2 protease was added to a final concentration of 25 nM, depending on the enzyme activity level, and the peptide substrate was added to a final concentration of 1.3 μM. The assay was incubated 30 minutes at 30° C. and read in a Perkin Elmer Envision with excitation at 473 nm and emission measurement at 519 nm.

Assay [1] deals with Norwalk GGI.1 Norovirus protease (Norovirus, UniProt Q83883). The experiment in a line: Noro-Norwalk FRET protease assay (Norwalk GGI.1). In kind it is biochemical, Norwalk virus. Conditions: FRET protease assay, read-out: Norwalk GGI.1 IC50. Here is the method:
as §1
The Noro-Norwalk FRET protease assay was performed in 50 mM HEPES-Na pH 8, 50 mM NaCl, 0.4 mM EDTA, 4% glycerol, and 6 mM DTT. A self-quenching peptide substrate [5-FAM]-[…]-[TAMRA] was custom synthesized by Anaspec. Compounds were diluted in 3-fold serial dilutions to final concentrations of 200 μM to 10.2 nM. Noro protease was added to a final concentration of 1-7 μM, depending on the enzyme activity level, and the peptide substrate was added to a final concentration of 10 μM. The assay was incubated 90 minutes at 37° C. and read in a Perkin Elmer Envision with excitation at 473 nm and emission measurement at 519 nm.

The target of assay [2] is HuNV GGII.4 Norovirus protease (Norovirus GII.4 (human norovirus genogroup II genotype 4), UniProt P54634). Kind of assay: Norovirus protease FRET assay (HuNV GGII.4). Type of assay: biochemical. Particulars: FRET protease assay, read-out: HuNV GGII.4 IC50.
Sequence of HuNV GGII.4 Norovirus protease (P54634 1009-1189): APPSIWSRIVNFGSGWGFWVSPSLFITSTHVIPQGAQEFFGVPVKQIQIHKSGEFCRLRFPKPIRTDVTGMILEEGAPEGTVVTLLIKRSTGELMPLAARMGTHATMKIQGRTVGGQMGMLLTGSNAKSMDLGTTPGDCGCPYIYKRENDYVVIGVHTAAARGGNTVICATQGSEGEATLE

Each structure is given as a SMILES string. Like-named read-outs stand apart in the source and are kept apart here.

Sequence of Norwalk GGI.1 Norovirus protease (Q83883 1101-1281): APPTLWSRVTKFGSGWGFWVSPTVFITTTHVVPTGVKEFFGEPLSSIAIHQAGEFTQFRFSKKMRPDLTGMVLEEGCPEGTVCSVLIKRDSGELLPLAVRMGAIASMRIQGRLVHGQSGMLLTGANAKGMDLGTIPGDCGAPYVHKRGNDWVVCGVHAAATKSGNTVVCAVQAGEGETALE

`CCN(CCc1ccccc1)C(=O)CC[C@@H](C=O)NC(=O)[C@H](CC1CCCCC1)NC(=O)OCc1cccc(Cl)c1` (stereo in doubt) [Compound A56, 3-Chlorobenzyl ((S)-3-cyclohexyl-1-(((S)-5-(ethyl(phenethyl)amino)-1,5-dioxopentan-2-yl)amino)-1-oxopropan-2-yl)carbamate]: the IC50 on SARS2 protease is more than 200 µM; in assay [1] (Table C), 9.3 µM; in assay [2] (Table C) it was 106 µM.
For `CCNC(=O)NCCN(C)C(=O)CC[C@H](NC(=O)[C@H](CC1CCCCC1)NC(=O)OCc1cccc(Cl)c1)C(O)P(=O)(OCC)OCC` (stereo partly drawn) [Compound A16, 3-Chlorobenzyl ((12S,15S)-16-cyclohexyl-12-((diethoxyphosphoryl)(hydroxy)methyl)-8-methyl-4,9,14-trioxo-3,5,8,13-tetraazahexadecan-15-yl)carbamate], the IC50 at SARS2 protease is more than 200 µM; in assay [1] (Table C) it was 81.9 µM; in assay [2] (Table C) it was more than 200 µM.
With `O=C[C@H](CCC(=O)N1CCOCc2ccccc21)NC(=O)[C@H](CC1CCCCC1)NC(=O)OCc1cccc(Cl)c1` [Compound A108, 3-Chlorobenzyl ((S)-3-cyclohexyl-1-(((S)-5-(2,3-dihydrobenzo[e][1,4]oxazepin-1(5H)-yl)-1,5-dioxopentan-2-yl)amino)-1-oxopropan-2-yl)carbamate], the IC50 worked out at 8 µM in assay [1] (Table C) and 13.4 µM in assay [2] (Table C).
On the same counts, the results for `CN(CCc1ccncc1)C(=O)CC[C@@H](C=O)NC(=O)[C@H](CC1CCCCC1)NC(=O)OCc1cccc(Cl)c1` [Compound A68, 3-Chlorobenzyl ((S)-3-cyclohexyl-1-(((S)-5-(methyl (2-(pyridin-4-yl)ethyl)amino)-1,5-dioxopentan-2-yl)amino)-1-oxopropan-2-yl) carbamate] are 4.6 µM and 16.7 µM.
Turning to `CCOP(=O)(OCC)C(O)[C@H](CCC(=O)N(CC)CCc1ccccc1)NC(=O)[C@H](CC1CCCCC1)NC(=O)OCc1cccc(Cl)c1` (stereo partly drawn) [Compound A50, 3-Chlorobenzyl ((2S)-3-cyclohexyl-1-(((2S)-1-(diethoxyphosphoryl)-5-(ethyl(phenethyl)amino)-1-hydroxy-5-oxopentan-2-yl)amino)-1-oxopropan-2-yl)carbamate], the figures for the half-maximal inhibitory concentration (IC50) (on SARS2 protease; in assay [1] (Table C); in assay [2] (Table C)) were 9.7 µM, 97.4 µM and 95.7 µM, respectively.
The matching figures for `CN(CCc1ccccc1)C(=O)CC[C@@H](C=O)NC(=O)[C@H](CC1CCCCC1)NC(=O)OCc1cccc(Cl)c1` (stereo in doubt) [Compound A36, 3-chlorobenzyl ((S)-3-cyclohexyl-1-(((S)-5-(methyl(phenethyl)amino)-1,5-dioxopentan-2-yl)amino)-1-oxopropan-2-yl)carbamate]: more than 200 µM, 5.2 µM and 26.9 µM.
For the compound `CCCCCN(C)C(=O)CC[C@H](NC(=O)[C@H](CC1CCCCC1)NC(=O)OCc1cccc(Cl)c1)C(O)P(=O)(OCC)OCC` (stereo partly drawn) [Compound A9, 3-chlorobenzyl ((2S)-3-cyclohexyl-1-(((2S)-1-(diethoxyphosphoryl)-1-hydroxy-5-(methyl(pentyl)amino)-5-oxopentan-2-yl)amino)-1-oxopropan-2-yl)carbamate], the IC50 at SARS2 protease was more than 200 µM; in assay [1] (Table C) it was 14 µM; in assay [2] (Table C), 154 µM.
In the case of `CON(C)C(=O)C1CC(C(=O)N(C)C)CCCCCC(Cc2ccccc2)OC(=O)N[C@@H](CC(C)C)C(=O)N1` (stereo in doubt) [Compound B43, (4S,7S)-15-benzyl-4-isobutyl-N7-methoxy-N7,N9,N9-trimethyl-2,5-dioxo-1-oxa-3,6-diazacyclopentadecane-7,9-dicarboxamide], the results for the half-inhibitory concentration (IC50) (at SARS2 protease; in assay [1] (Table D); in assay [2] (Table D)) were more than 200 µM, 105 µM and 105 µM, respectively.
Take `CN(CCc1ccccc1)C(=O)CC[C@H](NC(=O)[C@H](CC1CCCCC1)NC(=O)OCc1cccc(Cl)c1)C(O)S(=O)(=O)O` (stereo in doubt) [Compound A114, Sodium (2S)-2-((S)-2-((((3-chlorobenzyl)oxy)carbonyl)amino)-3-cyclohexylpropanamido)-1-hydroxy-5-(methyl (phenethyl)amino)-5-oxopentane-1-sulfonate]: the IC50 in assay [1] (Table C) amounted to 5.2 µM; in assay [2] (Table C), 12.1 µM.
Consider `CN(C)C(=O)CC[C@@H](C=O)NC(=O)[C@H](CC1CCCCC1)NC(=O)OCc1cccc(Cl)c1` [Compound A6, 3-chlorobenzyl ((S)-3-cyclohexyl-1-(((S)-5-(dimethylamino)-1,5-dioxopentan-2-yl)amino)-1-oxopropan-2-yl)carbamate], for which the values for the IC50 (on SARS2 protease; in assay [1] (Table C); in assay [2] (Table C)) were more than 200 µM, 2 µM and 18.7 µM, respectively.
With `O=C[C@H](CCC(=O)N1CCOc2ccccc2C1)NC(=O)[C@H](CC1CCCCC1)NC(=O)OCc1cccc(Cl)c1` [Compound A57, 3-Chlorobenzyl ((S)-3-cyclohexyl-1-(((S)-5-(2,3-dihydrobenzo[f][1,4]oxazepin-4(5H)-yl)-1,5-dioxopentan-2-yl)amino)-1-oxopropan-2-yl)carbamate], the IC50 in assay [1] (Table C) amounted to 2.3 µM; in assay [2] (Table C), 2.6 µM.
As to `O=C[C@H](CCC(=O)N1CCCCc2ccccc21)NC(=O)[C@H](CC1CCCCC1)NC(=O)OCc1cccc(Cl)c1` [Compound A107, 3-Chlorobenzyl ((S)-3-cyclohexyl-1-(((S)-1,5-dioxo-5-(2,3,4,5-tetrahydro-1H-benzo[b]azepin-1-yl)pentan-2-yl)amino)-1-oxopropan-2-yl)carbamate], the IC50 in assay [1] (Table C) was found to be 39.6 µM; in assay [2] (Table C), 200 µM.
In the case of `CCCCCCCC1CCCC/C=C/CC(C(=O)NC)C[C@@H](CO)NC(=O)[C@H](CC(C)C)NC1=O` (stereo partly drawn) [Compound B66, (2S,5S,E)-15-heptyl-5-(hydroxymethyl)-2-isobutyl-N-methyl-3,16-dioxo-1,4-diazacyclohexadec-9-ene-7-carboxamide], the IC50 at SARS2 protease was more than 200 µM.
In the case of `CCCCCCCC1CC/C=C/CC(C(=O)NC)C[C@@H](C(=O)N(C)OC)NC(=O)C(CC(C)C)NC(=O)O1` (single isomer, unassigned) [Compound B34], the IC50 on SARS2 protease was more than 200 µM.
On to `CCCCCCCC1CC/C=C\CC(C(=O)N(C)C)CC(C=O)NC(=O)[C@H](CC(C)C)NC1=O` (stereo in doubt) [Compound B10, (2S,5S,Z)-5-formyl-13-heptyl-2-isobutyl-N,N-dimethyl-3,14-dioxo-1,4-diazacyclotetradec-9-ene-7-carboxamide], for which the IC50 at SARS2 protease stood at 105 µM.
`CCOC(=O)NCCN(C)C(=O)CC[C@H](NC(=O)[C@H](CC1CCCCC1)NC(=O)OCc1cccc(Cl)c1)C(=O)N(C)OC` (stereo in doubt) [Compound A32, 3-Chlorobenzyl ((12S,15S)-16-cyclohexyl-12-(methoxy(methyl)carbamoyl)-8-methyl-4,9,14-trioxo-3-oxa-5,8,13-triazahexadecan-15-yl)carbamate]: the IC50 on SARS2 protease was more than 200 µM.
Still for that read-out and setting: under `CCCCCCCC1CC/C=C/CC(C(=O)NC)C[C@@H](C(=O)N(C)OC)NC(=O)C(CC(C)C)NC(=O)O1` (single isomer, unassigned) [Compound B33] stands more than 200 µM.
In the case of `O=C[C@H](CCC(=O)N1CCc2ccccc2CC1)NC(=O)[C@H](CC1CCCCC1)NC(=O)OCc1cccc(Cl)c1` (stereo in doubt) [Compound A118, 3-Chlorobenzyl ((S)-3-cyclohexyl-1-(((S)-1,5-dioxo-5-(1,2,4,5-tetrahydro-3H-benzo[d]azepin-3-yl)pentan-2-yl)amino)-1-oxopropan-2-yl)carbamate], the IC50 in assay [1] (Table C) is 6.6 µM; in assay [2] (Table C) it was 74.2 µM.
`CCCCCCCC1CC/C=C\CC(C(=O)NC)C[C@@H](CO)NC(=O)[C@H](CC(C)C)NC1=O` (stereo partly drawn) [Compound B65, (2S,5S,Z)-13-heptyl-5-(hydroxymethyl)-2-isobutyl-N-methyl-3,14-dioxo-1,4-diazacyclotetradec-9-ene-7-carboxamide]: the IC50 at SARS2 protease is more than 200 µM.
As to `CCCCCCCCC(=O)N[C@@H](CC(C)C)C1=NC(CCC(=O)NC)CO1` (some centres unmarked) [Compound A112, N-((1 S)-3-methyl-1-(4-(3-(methylamino)-3-oxopropyl)-4,5-dihydrooxazol-2-yl)butyl)nonanamide], the IC50 on SARS2 protease was more than 200 µM.
Same read-out and setting: then `CCOP(=O)(OCC)C(O)[C@H](CCC(=O)N(C)CCc1ccncc1)NC(=O)[C@H](CC1CCCCC1)NC(=O)OCc1cccc(Cl)c1` (stereo partly drawn) [Compound A51, 3-Chlorobenzyl ((2S)-3-cyclohexyl-1-(((2S)-1-(diethoxyphosphoryl)-1-hydroxy-5-(methyl (2-(pyridin-4-yl)ethyl)amino)-5-oxopentan-2-yl)amino)-1-oxopropan-2-yl) carbamate], with more than 200 µM.

As a reminder, the IC50 is the midpoint of a concentration-inhibition curve.
